{"source": "patent EP0906100B1", "about": "“USE OF 5-HT 1A? RECEPTOR ANTAGONISTS FOR THE TREATMENT OF URINARY INCONTINENCE” (RECORDATI S.A., priority 1996, dated 1997)", "key": {"α1-adrenergic receptor": {"molecular_target": "α1-adrenergic receptor", "test": "[3H]prazosin binding (α1-receptors), rat cerebral cortices", "conditions": "0.35 nM [3H]prazosin, read-out: Binding affinity for the α1-adrenergic receptor, Ki", "protocol": "[^3H]prazosin binding (α1-receptors):\nRat cerebral cortices were homogenized in 50 volumes of ice-cold 50 mM Tris-HCl pH 7.4. The homogenates were centrifuged at 48,000 x g for 10 minutes, and the pellets were resuspended in the same volume of ice-cold buffer, centrifuged, and resuspended two more times. The final pellets were resuspended in 100 volumes of 50 mM Tris-HCl, pH 7.4, containing 0.1 % ascorbic acid and 10 µM pargyline. […] Non-specific binding was determined in the presence of 10 µM phentolamine. The incubations were terminated by rapid filtration through Whatman GF/B filters using a Brandel cell harvester, after which the filters were washed with 3x3 ml of ice-cold buffer. The radioactivity retained on the filters was determined by liquid scintillation counting."}, "[1]": {"test_system": "rhythmic bladder voiding contractions", "test": "Volume-induced rhythmic bladder voiding contractions in anaesthetized rats", "type": "in vivo", "conditions": "for AMPLITUDE mm Hg before treatment / FREQUENCY No. contr./15 min before treatment: baseline; for AMPLITUDE mm Hg before treatment / AMPLITUDE mm Hg after treatment: animals with frequency reduction <50%; for AMPLITUDE mm Hg before treatment / FREQUENCY No. contr./15 min before treatment / AMPLITUDE mm Hg after treatment / FREQUENCY No. contr./15 min after treatment: mean±S.E.; for BLADDER CONTRACTIONS Disappearance time: duration of bladder quiescence, mean (S.E. in next cell)", "protocol": "Female Sprague Dawley rats weighing 225-275 g (Crl: CD° BR, Charles River Italia) were used. The animals were housed with free access to food and water and were maintained on a forced 12 h alternating light-dark cycle at 22-24°C for at least one week, except during the experiment. The activity on the rhythmic bladder voiding contractions was evaluated according to the method of Dray (J. Pharmcol. Methods, 13:157, 1985), with some modifications as in Guarneri (Phannacol. Res., 27:173, 1993). […] The catheter was tied in place with a ligature around the external urethral orifice and was connected with conventional pressure transducers (Statham P23 ID/P23 XL). […] The bladder was then filled via the recording catheter by incremental volumes of warm (37°C) saline until reflex bladder voiding contractions occurred (usually 0.8-1.5 ml). Two parameters were recorded from the cystometrogram: the frequency of voiding contractions, calculated by counting the number of peaks/15 min of observation, and the mean amplitude of these contractions (mean height of the peaks in mmHg) in the same time period. For intravenous (i. v. ) injection of bioactive compounds, a PE 50 polyethylene tubing filled with physiological saline was inserted into the jugular vein.\nBioactivity was assessed in individual animals (using 6-10 rats per dose), by recording the number and height of the peaks for 15 min after drug injection and comparing them with those previously recorded for 15 min after the intravenous administration of vehicle alone. […] The statistical significance of changes in frequency and amplitude before and after treatment was assessed by Student's t test for paired data. Changes showing a probability P<0.01 were considered significant.\nAn all-or-none criterion was also used to compare bioactivity in terms of ED50 values. Rats showing a treatment-related change of ≥30% relative to the basal value were considered to be positive. Quantal dose-response curves and ED50 values were evaluated by the method of Bliss (J. Pharm. Pharmacol., 11:192, 1938).\nThe rapid distension of the urinary bladder in urethane-anaesthetized rats produced a series of rhythmic bladder voiding contractions whose characteristics have been described (Maggie et al., Brain Res., 380, 83, 1986; Maggi, et al., J. Pharmacol. Exp. Ther., 230, 500, 1984). The frequency of these contractions is related to the sensory afferent arm of reflex micturition and to the integrity of the micturition centre, while their amplitude is a property of the efferent arm of the reflex (Maggi et al., J. Pharmacol. Meth., 15, 157, 1986; Maggi et al., Brain Res.. 415, 1, 1987; Maggi et al., Naun. Schmied. Arch. Pharmacol., 332, 276, 1986; Maggi et al., J. Urol., 136, 696, 1986)."}}, "data": [{"molecule": "COc1ccccc1N1CCN(CCN(C(=O)C2CCCCC2)c2ccccn2)CC1", "note": "[Compound A, N-{2-[4-(2-methoxyphenyl)-1-piperazinyl]-ethyl}-N-(2-pyridyl)-cyclohexanecarboxamide]", "values": [{"measurement": "Ki", "setting": "α1-adrenergic receptor", "result": 296, "unit": "nM"}, {"measurement": "AMPLITUDE mm Hg before treatment", "setting": "[1]; 1 µg/kg i.v. group", "result": "25.4±2.0", "unit": "mm Hg"}, {"measurement": "FREQUENCY No. contr./15 min before treatment", "setting": "[1]; 1 µg/kg i.v. group", "result": "11.7±1.0", "unit": "No. contr./15 min"}, {"measurement": "AMPLITUDE mm Hg after treatment", "setting": "[1]; 1 µg/kg i.v.", "result": "23.1±1.9", "unit": "mm Hg"}, {"measurement": "BLADDER CONTRACTIONS Disappearance time", "setting": "[1]; 1 µg/kg i.v.", "result": 1.34, "unit": "min"}, {"measurement": "FREQUENCY No. contr./15 min after treatment", "setting": "[1]; 1 µg/kg i.v.", "result": "11.6±1.3", "unit": "No. contr./15 min"}, {"measurement": "AMPLITUDE mm Hg before treatment", "setting": "[1]; 3 µg/kg i.v. group", "result": "25.1±2.2", "unit": "mm Hg"}, {"measurement": "FREQUENCY No. contr./15 min before treatment", "setting": "[1]; 3 µg/kg i.v. group", "result": "11.5±0.7", "unit": "No. contr./15 min"}, {"measurement": "AMPLITUDE mm Hg after treatment", "setting": "[1]; 3 µg/kg i.v.", "result": "21.7±2.0", "unit": "mm Hg"}, {"measurement": "BLADDER CONTRACTIONS Disappearance time", "setting": "[1]; 3 µg/kg i.v.", "result": 2.15, "unit": "min"}, {"measurement": "FREQUENCY No. contr./15 min after treatment", "setting": "[1]; 3 µg/kg i.v.", "result": "9.1±1.0", "unit": "No. contr./15 min"}, {"measurement": "AMPLITUDE mm Hg before treatment", "setting": "[1]; 10 µg/kg i.v. group", "result": "26.0±3.8", "unit": "mm Hg"}, {"measurement": "FREQUENCY No. contr./15 min before treatment", "setting": "[1]; 10 µg/kg i.v. group", "result": "11.5±1.5", "unit": "No. contr./15 min"}, {"measurement": "AMPLITUDE mm Hg after treatment", "setting": "[1]; 10 µg/kg i.v.", "result": "22.3±3.8", "unit": "mm Hg"}, {"measurement": "BLADDER CONTRACTIONS Disappearance time", "setting": "[1]; 10 µg/kg i.v.", "result": 8.13, "unit": "min"}, {"measurement": "FREQUENCY No. contr./15 min after treatment", "setting": "[1]; 10 µg/kg i.v.", "result": "5.9±1.6", "unit": "No. contr./15 min"}, {"measurement": "AMPLITUDE mm Hg before treatment", "setting": "[1]; 30 µg/kg i.v. group", "result": "28.5±2.5", "unit": "mm Hg"}, {"measurement": "FREQUENCY No. contr./15 min before treatment", "setting": "[1]; 30 µg/kg i.v. group", "result": "11.8±0.7", "unit": "No. contr./15 min"}, {"measurement": "AMPLITUDE mm Hg after treatment", "setting": "[1]; 30 µg/kg i.v.", "result": "25.0±4.0", "unit": "mm Hg"}, {"measurement": "BLADDER CONTRACTIONS Disappearance time", "setting": "[1]; 30 µg/kg i.v.", "result": 8.87, "unit": "min"}, {"measurement": "FREQUENCY No. contr./15 min after treatment", "setting": "[1]; 30 µg/kg i.v.", "result": "3.8±0.7", "unit": "No. contr./15 min"}, {"measurement": "AMPLITUDE mm Hg before treatment", "setting": "[1]; 100 µg/kg i.v. group", "result": "28.0±4.6", "unit": "mm Hg"}, {"measurement": "FREQUENCY No. contr./15 min before treatment", "setting": "[1]; 100 µg/kg i.v. group", "result": "12.0±0.9", "unit": "No. contr./15 min"}, {"measurement": "AMPLITUDE mm Hg after treatment", "setting": "[1]; 100 µg/kg i.v.", "result": "25.7±2.9", "unit": "mm Hg"}, {"measurement": "BLADDER CONTRACTIONS Disappearance time", "setting": "[1]; 100 µg/kg i.v.", "result": 12.56, "unit": "min"}, {"measurement": "FREQUENCY No. contr./15 min after treatment", "setting": "[1]; 100 µg/kg i.v.", "result": "4.1±1.1", "unit": "No. contr./15 min"}, {"measurement": "FREQUENCY No. contr./15 min before treatment", "setting": "[1]; 300 µg/kg i.v. group", "result": "9.5±0.6", "unit": "No. contr./15 min"}, {"measurement": "BLADDER CONTRACTIONS Disappearance time", "setting": "[1]; 300 µg/kg i.v.", "result": 13.37, "unit": "min"}, {"measurement": "FREQUENCY No. contr./15 min after treatment", "setting": "[1]; 300 µg/kg i.v.", "result": "2.2±0.5", "unit": "No. contr./15 min"}, {"measurement": "ED (10 min disappearance of contractions)", "setting": "[1]; Rattus norvegicus, iv, 10 min, extrapolated dose inducing 10 min of disappearance of the contractions, linear regression", "result": 0.037, "unit": "mg/kg"}, {"measurement": "maximal change of amplitude of the rhythmic bladder voidings", "setting": "[1]; i.v., no dose-dependence observed", "result": "about 13%"}]}]}
